We go through one compound from patent US8889375B2, “Hypoglycemic effect enhancer” (Biofermin Pharmaceutical Co., Ltd., priority 2009, dated 2014).

One assay relates to GK rats. The following applies: 9-week dietary administration, 0.005%: 4.1 mg/kg·day; cited from earlier work.
Assay [1] concerns KK-A^y mice. Nature of the assay: Fasting blood glucose level after 2-week feeding of the test diet (Example 2). In kind it is in vivo, mouse. The note with it: 2-week feeding of test diet (10% BBG9-1 dried cells and/or 0.0003% voglibose in CE-2), fasted overnight, FIG. 1. The text has this:
(§1) As the voglibose, BASEN (registered trade name) tablets 0.2 (made by Takeda Pharmaceutical Company Ltd.) were crushed and used. Female KK-A^y mice (strain name KK-A^y/TaJcl) at 8 weeks old were purchased (from CLEA Japan, Inc.) and preliminarily reared in separate cages for 2 weeks. A KK-A^y mouse is a diabetic model mouse. In the preliminary rearing, free access to a commercial powder diet (trade name: CE-2, made by CLEA Japan, Inc.) and tap water was provided. On the first day of the experiment, the oral glucose tolerance test (OGTT) was conducted. That is, to the mice kept fasted from the previous day, a glucose solution ((2 g in 5 mL)/kg) was orally administered. […] Accu-Check Aviva, made by Roche Diagnostics). The area under the blood concentration-time curve (AUC) was calculated, and based on the AUC, the mice were divided into the following 4 groups […] mice/group). The grouped mice were given free access to the test diet. Group A: a group fed with CE-2 containing 10% dextrin. […] Group C: a group fed with CE-2 containing 10% dextrin and 0.0003% voglibose. […] Each group was fed with the test diet for 2 weeks as above, fasted overnight, and then measured for fasting glucose level with use of Accu-Check Aviva. […] The significant difference of each group from Group A was evaluated using Durmett's test, and the significant difference between 2 groups was evaluated using t-test.

Assay [2] has as its system KK-A^y mice. Nature of the assay: Oral glucose tolerance test (OGTT) after 6-week feeding of the test diet (Example 2). In kind it is in vivo, mouse.
Source text: as §1

Take `OCC(CO)N[C@H]1C[C@](O)(CO)[C@@H](O)[C@H](O)[C@H]1O` [voglibose, 1L(1S)-(1(OH),2,4,5/1,3)-5-[[2-hydroxy-1-(hydroxymethyl)-ethyl]amino]-1-C-(hydroxymethyl)-1,2,3,4-cyclohexane tetrol]: the glucose tolerance result with GK rats is reported as “improved the glucose tolerance”; in the assay on KK-A^y mice [2] (6-week dietary administration, voglibose 0.0003%: 0.6 mg/kg·day), “did not improve the glucose tolerance”. Further, the “fasting blood glucose level” value with KK-A^y mice [1] was “neither BBG9-1 alone nor voglibose alone decreased the fasting blood glucose level”. Further, the “blood glucose level in the OGTT after glucose loading” value in the assay with KK-A^y mice [2] (6-week feeding (10% BBG9-1 dried cells and/or 0.0003% voglibose in CE-2), glucose 2 g/kg oral, FIG. 2) is listed as “neither BBG9-1 alone nor voglibose alone inhibited the increase in the blood glucose level”.
